Experimental data taken from patent publication US12371428B2 (Exelixis, Inc., priority 2019, dated 2025).
pIC50: −log10 of the molar value. Where a name gives a salt, the structure may show the parent alone.

Key:
[1] = molecular target: Mer (phospho-Mer, MERTK-transfected 293A cells) (Homo sapiens (Human), UniProt Q12866); assay: Mer autophosphorylation ELISA in transient transfected 293A cells (Example H); assay type: cell-based; conditions: cellular activity; Mer autophosphorylation ELISA in transient transfected 293A cells
Mer (phospho-Mer, MERTK-transfected 293A cells), sequence (Q12866 21-999): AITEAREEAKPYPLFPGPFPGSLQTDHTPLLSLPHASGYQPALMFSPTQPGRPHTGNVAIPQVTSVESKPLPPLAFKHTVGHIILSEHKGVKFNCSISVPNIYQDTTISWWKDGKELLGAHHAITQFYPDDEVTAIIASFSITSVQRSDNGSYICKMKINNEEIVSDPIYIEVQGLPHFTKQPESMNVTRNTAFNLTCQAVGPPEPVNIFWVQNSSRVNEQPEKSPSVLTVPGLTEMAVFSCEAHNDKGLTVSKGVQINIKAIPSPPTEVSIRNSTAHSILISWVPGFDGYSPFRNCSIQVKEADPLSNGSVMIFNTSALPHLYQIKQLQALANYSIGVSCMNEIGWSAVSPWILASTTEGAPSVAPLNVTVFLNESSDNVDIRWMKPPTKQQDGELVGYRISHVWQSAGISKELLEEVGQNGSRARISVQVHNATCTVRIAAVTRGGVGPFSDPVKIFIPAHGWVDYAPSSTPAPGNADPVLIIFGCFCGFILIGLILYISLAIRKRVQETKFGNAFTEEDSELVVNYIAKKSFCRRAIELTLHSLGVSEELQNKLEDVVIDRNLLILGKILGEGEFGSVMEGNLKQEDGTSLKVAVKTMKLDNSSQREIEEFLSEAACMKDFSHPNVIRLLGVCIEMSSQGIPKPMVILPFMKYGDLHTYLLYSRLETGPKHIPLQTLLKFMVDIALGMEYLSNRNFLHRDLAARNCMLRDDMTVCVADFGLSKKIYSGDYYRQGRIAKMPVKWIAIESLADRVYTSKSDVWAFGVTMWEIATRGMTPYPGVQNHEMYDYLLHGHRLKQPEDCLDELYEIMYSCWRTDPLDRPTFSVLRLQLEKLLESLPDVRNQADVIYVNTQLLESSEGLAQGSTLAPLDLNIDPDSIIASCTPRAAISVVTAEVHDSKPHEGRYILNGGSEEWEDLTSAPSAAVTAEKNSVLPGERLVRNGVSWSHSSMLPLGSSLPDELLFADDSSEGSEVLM
Method in brief: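 Human MERTK transiently transfected into 293A cells; compounds as 8-point dose curve in serum-free medium (0.3% DMSO final), 1 h. Lysates assayed by phospho-Mer sandwich ELISA against phospho-Mer standard; DMSO = 100%, reference inhibitor = 0% activity; IC50 from 4-parameter logistic fit.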

[2] = molecular target: Human MER (residues 528-999) (Homo sapiens (Human), UniProt Q12866); assay: Human Mer kinase assay, HTRF KinEase (Example C-2); assay type: biochemical; conditions: protocol of Example C-2 (other compounds)
Human MER (residues 528-999), sequence (Q12866 528-999): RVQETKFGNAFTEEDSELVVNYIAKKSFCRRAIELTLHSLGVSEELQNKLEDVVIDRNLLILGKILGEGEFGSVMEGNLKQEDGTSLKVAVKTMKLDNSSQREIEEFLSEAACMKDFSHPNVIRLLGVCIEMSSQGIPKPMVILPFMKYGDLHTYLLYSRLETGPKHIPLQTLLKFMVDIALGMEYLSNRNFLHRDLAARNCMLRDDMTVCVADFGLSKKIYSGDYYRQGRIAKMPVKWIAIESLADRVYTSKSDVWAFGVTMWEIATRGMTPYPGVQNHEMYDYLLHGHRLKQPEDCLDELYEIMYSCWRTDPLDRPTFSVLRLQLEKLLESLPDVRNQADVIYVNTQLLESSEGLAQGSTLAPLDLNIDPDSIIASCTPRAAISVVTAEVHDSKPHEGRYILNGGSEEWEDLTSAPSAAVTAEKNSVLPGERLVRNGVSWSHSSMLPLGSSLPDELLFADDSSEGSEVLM
Method in brief: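 HTRF KinEase TK assay with MER 528-999 (1 ng/well) in enzymatic buffer plus 5 mM MgCl2 and 1 mM DTT, biotinylated peptide substrate and ATP at Km (40 μM), 3% DMSO final, 60 min at room temperature. Stopped with EDTA detection mix (SA-XL665, TK antibody-Eu3+), read at 665/620 nm after 60 min; IC50 from 10-point 4-parameter fit, normalized to DMSO and 1 μM reference.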

[3] = molecular target: Human KDR (residues 790-1356) (Homo sapiens (Human), UniProt P35968); assay: Human KDR kinase assay, HTRF KinEase (Example B-2); assay type: biochemical; conditions: protocol of Example B-2 (other compounds)
Human KDR (residues 790-1356), sequence (P35968 790-1356): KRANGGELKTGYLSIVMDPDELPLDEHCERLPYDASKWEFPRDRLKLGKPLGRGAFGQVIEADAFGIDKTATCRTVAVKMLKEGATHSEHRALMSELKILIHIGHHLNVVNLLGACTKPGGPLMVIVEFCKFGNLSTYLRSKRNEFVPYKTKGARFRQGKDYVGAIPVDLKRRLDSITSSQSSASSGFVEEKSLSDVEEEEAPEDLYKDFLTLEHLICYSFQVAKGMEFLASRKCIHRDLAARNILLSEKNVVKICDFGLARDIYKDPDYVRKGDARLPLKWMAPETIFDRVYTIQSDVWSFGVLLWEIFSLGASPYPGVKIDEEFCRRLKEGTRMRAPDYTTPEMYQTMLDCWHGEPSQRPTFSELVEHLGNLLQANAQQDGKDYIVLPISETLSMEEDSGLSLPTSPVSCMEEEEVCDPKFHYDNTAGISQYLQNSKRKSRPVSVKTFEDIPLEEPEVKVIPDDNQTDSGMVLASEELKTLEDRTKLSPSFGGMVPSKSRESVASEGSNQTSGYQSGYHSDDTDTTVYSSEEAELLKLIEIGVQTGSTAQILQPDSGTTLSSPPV
Method in brief: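 Human KDR residues 790-1356 (0.1 ng/well) in buffer with 5 mM MgCl2, 1 mM MnCl2, 1 mM DTT, biotinylated peptide substrate, ATP at Km (4.0 μM), 3% DMSO, 10 compound concentrations; 40 min, room temperature. EDTA stop, streptavidin-XL665/Eu-TK antibody HTRF read 665/620 nm; 4-parameter IC50.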

[4] = molecular target: Human MET (residues 956-1390) (Homo sapiens (Human), UniProt P08581); assay: Human Met kinase assay, HTRF KinEase (Example D-2); assay type: biochemical; conditions: protocol of Example D-2 (other compounds); read-out: c-Met IC50
Human MET (residues 956-1390), sequence (P08581 956-1390): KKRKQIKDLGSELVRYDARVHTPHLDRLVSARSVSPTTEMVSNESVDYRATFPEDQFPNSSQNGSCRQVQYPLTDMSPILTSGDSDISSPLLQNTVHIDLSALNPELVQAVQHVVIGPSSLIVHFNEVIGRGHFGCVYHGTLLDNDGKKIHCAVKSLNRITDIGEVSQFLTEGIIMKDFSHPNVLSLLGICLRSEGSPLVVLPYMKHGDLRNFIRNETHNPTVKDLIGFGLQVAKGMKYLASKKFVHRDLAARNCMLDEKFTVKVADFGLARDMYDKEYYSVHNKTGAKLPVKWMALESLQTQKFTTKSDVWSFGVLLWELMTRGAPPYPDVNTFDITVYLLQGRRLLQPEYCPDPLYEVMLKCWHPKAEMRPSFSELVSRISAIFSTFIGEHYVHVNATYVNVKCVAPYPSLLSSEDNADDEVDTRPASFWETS
Method in brief: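 HTRF KinEase assay on MET residues 956-1390 (0.1 ng/well) in buffer with 5 mM MgCl2, 1 mM DTT and 1 mM MnCl2, with biotinylated peptide substrate, ATP at Km, 10 compound concentrations and 3% DMSO final, run 40 min at room temperature. The […] signal was normalized to DMSO and to 1 μM reference compound, and IC50 came from a 4-parameter logistic fit.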

Structure (SMILES)	pIC50 [1]	pIC50 [2]	pIC50 [3]	pIC50 [4]
COc1cnc2c(Oc3ccc(NC(=O)c4cn(C)c(C)c(-c5ccc(F)cc5C)c4=O)cc3F)ccnc2c1 [Compound 181, N-[3-Fluoro-4-[(7-methoxy-1,5-naphthyridin-4-yl)oxy]phenyl]-5-(4-fluoro-2-methylphenyl)-1,6-dimethyl-4-oxopyridine-3-carboxamide]	> 7.00	> 7.00	< 6.52	> 7.00
COc1cc2nccc(Oc3ccc(NC(=O)c4cn(C)c(C)c(-c5ccc(F)cc5C)c4=O)cc3)c2nc1OC [Compound 196, N-[4-[(6,7-Dimethoxy-1,5-naphthyridin-4-yl)oxy]phenyl]-5-(4-fluoro-2-methylphenyl)-1,6-dimethyl-4-oxopyridine-3-carboxamide]	> 7.00	> 7.00	6.52 to 7.00	> 7.00
COCCOc1nc2c(Oc3ccc(NC(=O)c4c(COC)nc(C)c(-c5ccc(F)cc5C)c4O)cc3F)ccnc2cc1OC [Compound 201, N-[3-Fluoro-4-[[7-methoxy-6-(2-methoxyethoxy)-1,5-naphthyridin-4-yl]oxy]phenyl]-5-(4-fluoro-2-methylphenyl)-4-hydroxy-2-(methoxymethyl)-6-methylpyridine-3-carboxamide]	> 7.00	> 7.00	6.52 to 7.00	> 7.00
COCc1nc(C)c(-c2ccc(F)cc2)c(O)c1C(=O)Nc1ccc(Oc2ccnc3ccc(OC)nc23)c(F)c1 [Compound 189, N-[3-Fluoro-4-[(6-methoxy-1,5-naphthyridin-4-yl)oxy]phenyl]-5-(4-fluorophenyl)-4-hydroxy-2-(methoxymethyl)-6-methylpyridine-3-carboxamide]	> 7.00	> 7.00	6.52 to 7.00	> 7.00
COCCOc1nc2c(Oc3ccc(NC(=O)c4cn(C)c(C)c(-c5ccc(F)cc5C)c4=O)cc3F)ccnc2cc1OC [Compound 200, N-[3-Fluoro-4-[[7-methoxy-6-(2-methoxyethoxy)-1,5-naphthyridin-4-yl]oxy]phenyl]-5-(4-fluoro-2-methylphenyl)-1,6-dimethyl-4-oxopyridine-3-carboxamide]	> 7.00	> 7.00	< 6.52	> 7.00
COc1cc2nccc(Oc3ccc(NC(=O)c4cn(C)c(C)c(-c5cccc(F)c5)c4=O)cc3F)c2nc1OC [Compound 37, N-[4-[(6,7-Dimethoxy-1,5-naphthyridin-4-yl)oxy]-3-fluorophenyl]-5-(3-fluorophenyl)-1,6-dimethyl-4-oxopyridine-3-carboxamide hydrochloride]	> 7.00	> 7.00	6.52 to 7.00	> 7.00
COCc1nc(C)c(-c2ccc(F)cc2)c(O)c1C(=O)Nc1ccc(Oc2ccnc3cc(OC)c(OC)nc23)c(F)c1 [Compound 184, N-[4-[(6,7-Dimethoxy-1,5-naphthyridin-4-yl)oxy]-3-fluorophenyl]-5-(4-fluorophenyl)-4-hydroxy-2-(methoxymethyl)-6-methylpyridine-3-carboxamide]	> 7.00	> 7.00	> 7.00	> 7.00
COCc1nc(C)c(-c2ccc(F)cc2C)c(O)c1C(=O)Nc1ccc(Oc2ccnc3cc(OC)cnc23)cc1 [Compound 194, 5-(4-Fluoro-2-methylphenyl)-4-hydroxy-2-(methoxymethyl)-N-[4-[(7-methoxy-1,5-naphthyridin-4-yl)oxy]phenyl]-6-methylpyridine-3-carboxamide]	> 7.00	> 7.00	6.52 to 7.00	> 7.00
CCc1nc(C)c(-c2ccc(F)cc2C)c(O)c1C(=O)Nc1ccc(Oc2ccnc3cc(OC)cnc23)cc1 [Compound 205, 2-Ethyl-5-(4-fluoro-2-methylphenyl)-4-hydroxy-N-[4-[(7-methoxy-1,5-naphthyridin-4-yl)oxy]phenyl]-6-methylpyridine-3-carboxamide]	> 7.00	> 7.00	< 6.52	> 7.00
COCc1nc(C)c(-c2ccc(F)cc2C)c(O)c1C(=O)Nc1ccc(Oc2ccnc3cc(OC)c(OC)nc23)cc1 [Compound 192, N-[4-[(6,7-Dimethoxy-1,5-naphthyridin-4-yl)oxy]phenyl]-5-(4-fluoro-2-methylphenyl)-4-hydroxy-2-(methoxymethyl)-6-methylpyridine-3-carboxamide]	> 7.00	> 7.00	> 7.00	> 7.00

Next, values leading:

pIC50 [1]	pIC50 [2]	pIC50 [3]	pIC50 [4]	Structure (SMILES)
> 7.00	> 7.00	6.52 to 7.00	> 7.00	COc1cnc2c(Oc3ccc(NC(=O)c4n[nH]c(C)c(-c5ccc(F)cc5)c4=O)cc3)ccnc2c1 [Compound 245, 5-(4-Fluorophenyl)-N-[4-[(7-methoxy-1,5-naphthyridin-4-yl)oxy]phenyl]-6-methyl-4-oxo-1H-pyridazine-3-carboxamide]
> 7.00	> 7.00	6.52 to 7.00	> 7.00	COc1cnc2c(Oc3ccc(NC(=O)c4ccc(C)n(-c5ccc(F)cc5C)c4=O)cc3)ccnc2c1 [Compound 226, 1-(4-Fluoro-2-methylphenyl)-N-[4-[(7-methoxy-1,5-naphthyridin-4-yl)oxy]phenyl]-6-methyl-2-oxopyridine-3-carboxamide]
> 7.00	> 7.00	< 6.52	6.52 to 7.00	COc1cnc2c(Oc3ccc(NC(=O)c4cnc(C(F)(F)F)c(-c5ccc(F)cc5)c4O)cc3F)ccnc2c1 [Compound 241, N-[3-Fluoro-4-[(7-methoxy-1,5-naphthyridin-4-yl)oxy]phenyl]-5-(4-fluorophenyl)-4-hydroxy-6-(trifluoromethyl)pyridine-3-carboxamide]
> 7.00	> 7.00	< 6.52	> 7.00	COc1cnc2c(Oc3ccc(NC(=O)c4nn(C)c(C)c(-c5ccc(F)cc5)c4=O)cc3)ccnc2c1 [Compound 251, 5-(4-Fluorophenyl)-N-[4-[(7-methoxy-1,5-naphthyridin-4-yl)oxy]phenyl]-1,6-dimethyl-4-oxopyridazine-3-carboxamide]
> 7.00	> 7.00	> 7.00	> 7.00	COc1cc2nccc(Oc3ccc(NC(=O)c4ccc(C)n(-c5ccc(F)cc5C)c4=O)cc3)c2nc1OC [Compound 225, N-[4-[(6,7-Dimethoxy-1,5-naphthyridin-4-yl)oxy]phenyl]-1-(4-fluoro-2-methylphenyl)-6-methyl-2-oxopyridine-3-carboxamide]
> 7.00	> 7.00	< 6.52	> 7.00	COc1cnc2c(Oc3ccc(NC(=O)c4cn(C)c(CO)c(-c5ccc(F)cc5)c4=O)cc3F)ccnc2c1 [Compound 222, N-[3-Fluoro-4-[(7-methoxy-1,5-naphthyridin-4-yl)oxy]phenyl]-5-(4-fluorophenyl)-6-(hydroxymethyl)-1-methyl-4-oxopyridine-3-carboxamide]
> 7.00	> 7.00	> 7.00	> 7.00	COc1cnc2c(Oc3ccc(NC(=O)c4ccc(C)n(-c5ccc(F)cc5C)c4=O)cc3F)ccnc2c1 [Compound 220, N-[3-Fluoro-4-[(7-methoxy-1,5-naphthyridin-4-yl)oxy]phenyl]-1-(4-fluoro-2-methylphenyl)-6-methyl-2-oxopyridine-3-carboxamide]
> 7.00	> 7.00	> 7.00	> 7.00	COc1cnc2c(Oc3ccc(NC(=O)c4n[nH]c(C)c(-c5ccc(F)cc5)c4=O)cc3F)ccnc2c1 [Compound 246, N-[3-Fluoro-4-[(7-methoxy-1,5-naphthyridin-4-yl)oxy]phenyl]-5-(4-fluorophenyl)-6-methyl-4-oxo-1H-pyridazine-3-carboxamide]
> 7.00	> 7.00	> 7.00	> 7.00	COc1ccc2nccc(Oc3ccc(NC(=O)c4c(C)ncc(-c5ccc(F)cc5)c4O)cc3F)c2n1 [Compound 242, N-[3-Fluoro-4-[(6-methoxy-1,5-naphthyridin-4-yl)oxy]phenyl]-5-(4-fluorophenyl)-4-hydroxy-2-methylpyridine-3-carboxamide]
> 7.00	> 7.00	> 7.00	> 7.00	COc1cc2nccc(Oc3ccc(NC(=O)c4ncc(C)n(-c5ccc(F)cc5)c4=O)cc3)c2nc1OC [Compound 262, N-[4-[(6,7-Dimethoxy-1,5-naphthyridin-4-yl)oxy]phenyl]-4-(4-fluorophenyl)-5-methyl-3-oxopyrazine-2-carboxamide]
